# Test results reported in patent publication US7049334B2, “Enhancement of learning and memory and treatment of amnesia” (priority 2001, dated 2006).
# Where “and” joins values, the source holds several entries; their conditions need not be identical. Equal values may be shown once.
# Experiments:
# [1] = system: Schaffer collateral-CA1 pathway of rat hippocampal slices; experiment: LTP induction in Schaffer collateral-CA1 pathway of hippocampal slices (fEPSP slope); format: cell-based, Wistar rats; conditions: for fEPSP slope: 1.6 μM perfused 6 min (3 min before and 3 min after tetanus)
# [2] = system: cortico-amygdala pathway (lateral amygdala); experiment: LTP in cortico-amygdala pathway (fEPSP); format: cell-based, Wistar rats; conditions: three trains (100 Hz, 1 sec at 3 min interval); in the presence of compound 1; n=4
# Procedure: After decapitation, brains of either adult ([…], for the induction of long-term potentiation) or young (2–3 weeks old, for the induction of long-term depression) Wistar rats were rapidly removed, and the hippocampus was dissected out. Transverse hippocampal slices (450 μm thickness) were immediately placed in an ice-cold cutting buffer containing 124 mM NaCl, 3 mM KCl, 1.0 mM Na2HPO4, 25 mM NaHCO3, 0.5 mM CaCl2, 5.0 mM MgSO4, 10 mM glucose, saturated with 95% O2 and 5% CO2. The slices were then maintained in an interface chamber at room temperature, and perfused at flow rate of 1–2 mL/min with artificial cerebrospinal fluid (ACSF). […] The test pulse duration was 100 μsec, and test responses were elicited at 0.02 Hz. To record field potentials in the cortico-amygdala pathway, a stimulating electrode was placed in the external capsule, which contained fibers from the auditory cortex to the lateral amygdala. Bicuculine (10 μM) was present in the perfusion solution when the fEPSPs of amygdala were recorded. […] Evoked fEPSPs were recorded and data were analyzed. The initial slope of the fEPSPs was calculated, and the data were expressed as percentages of the average of the base-line slope of the fEPSPs. […]
# [3] = system: rats (passive avoidance learning); experiment: One-trial step-through passive inhibitory avoidance task; format: in vivo
# From the text: Passive Avoidance and active avoidance task: Rats were trained and tested on a one-trial step-through passive inhibitory avoidance task with a procedure as described in Liang et al. (1998, Chin. J. Physiol. 41: 33–44). Briefly, an apparatus was a trough-shape alley divided by a sliding door into a well-lit safe compartment and a dark shock compartment. A rat was placed in the lit side facing away from the door. As the rat turned around, the door was opened. After the rat stepped into the dark compartment, it received an inescapable footshock via a constant current shocker controlled by a timer (Lafayette Instruments, Model 80240 and Model 58010, Indiana, USA). After administration of the foot-shock, the rat was removed from the alley and returned to its home cage. In a retention test given 24 hrs or 10 days later, the rat was reintroduced into the alley and the latency of stepping into the shock compartment with all four feet was taken as a retention score.
# The amygdala is also implicated in learning and memory. Studies have shown that this brain structure is particularly involved in processing affective information. See, e.g., Cahill and McGaugh (1990) Behav. Neurosci. 104: 532–543; and Gilbert et al. (1991) Behav. Neurosci. 105: 533–561. It has been reported that nitric oxide is also involved in activity-dependent synaptic plasticity and passive avoidance learning in amygdaloid nucleus. See, e.g., Bernabeu et al. (1995) NeuroReport 6: 1498–1500; Watanabe et al. (1995) Brain Res. 688: 233–236; and Teledgy and Kokavszky (1997) Neuropharmacology 36: 1583–1587. The effect of Compound 1 on passive avoidance learning was studied. Compound 1 was injected (i.p., 1 mg/kg) 10 min before foot-shock training. […] The memory lasts for several days. The retention scores were very high even if tested on day 10. There were much more rats which had retention latencies longer than 5 min in Compound 1-treated rats (2 out of 15 in a control group and 11 out of 12 in a Compound 1-treated group, respectively) tested on both day-1 and day-10. When the Compound 1 was mixed with 1.25% CMC and delivered to stomach directly (10 mg/kg) before foot-shock. The retention test was performed 1 day and 10 days later, respectively. […] Rats of 1-year-old were chosen for this experiment. Compound 1 (1 mg/kg) was i.p. injected 10 min before foot-shock. The retention test was performed 1 day and 10 days later, respectively.
# [4] = system: rats (active avoidance); experiment: Active avoidance task; format: in vivo
# Procedure: For the test of active avoidance, the rat was placed in the dark compartment, facing the door. The door was opened halfway, and the rat had 10 sec to shuttle over the door to lit compartment. Rat was not chosen for this experiment if the rat crossed to the safe side within 10 sec. Foot-shock was turned on at 10 s later. Rat escaped into safe compartment and the door was closed. The retention time on dark shock compartment was measured 48 hr later. The rats were discarded once the rats enter lit compartment within 10 s on the day of context training. Foot-shock was administered 10 s after putting in the dark compartment on day-1. Memory retention was tested on day-2.
# [5] = aged rats (1-year-old), i.p. 1 mg/kg 10 min before foot-shock
# [6] = aged rats (1-year-old), i.p. 1 mg/kg 10 min before foot-shock, 1 mg/kg
# [7] = oral 10 mg/kg in 1.25% CMC before foot-shock
# [8] = oral 10 mg/kg in 1.25% CMC before foot-shock, ceiling 300 s or 600 s, 10 mg/kg
# [9] = injection 10 min before foot-shock
smiles,measurement,setting,value
"OCc1ccc(-c2nn(Cc3ccccc3)c3ccccc23)o1 [Compound 1, 1-benzyl-3-(5′-hydroxymethyl-2′-furyl)-indazole]",LTP when compound added after tetanus,[1]; 1.6 μM added to ACSF 10 min after 2 trains of strong tetanus (100 Hz/1 sec),not further potentiated
same,"fEPSP slope, simultaneous application of AP-5 and MCPG",[1]; AP-5 and MCGP applied simultaneously with Compound 1,111.5±12.3%
same,"LTP induced by Compound 1, concomitant perfusion with L-NAME",[1]; L-NAME 300 μM (nitric oxide synthase inhibitor),significantly attenuated
same,"LTP induced by Compound 1, with Zinc protoporphyrin",[1]; Zinc protoporphyrin 1 μM (heme oxygenase inhibitor),did not affect
same,fEPSP,"[1]; fEPSP slope 60 min after weak tetanus (50 Hz, 0.5 s), 1.6 μM perfused 3 min before and 3 min after tetanus",172.9%
same,fEPSP slope,"[1]; strong tetanus (two 100 Hz, 1 sec trains 20 sec apart), at 50 min after tetanus, % of base-line slope",404.7±34.9%
same,fEPSP slope,"[1]; weak tetanus (20 Hz, 0.5 sec train), at 1 hr",172.9±10.7%
same,"fEPSP slope, co-perfused with AP5","[1]; weak tetanus (50 Hz/0.5 s), with AP5 100 μM (NMDA receptor antagonist)",142.1±13.5%
same,"fEPSP slope, co-perfused with KT5823","[1]; weak tetanus (50 Hz/0.5 s), with KT 5823 2 μM (protein kinase G inhibitor)",112.9±5.4%
same,"fEPSP slope, co-perfused with ODQ","[1]; weak tetanus (50 Hz/0.5 s), with ODQ 5 μM (soluble guanylyl cyclase inhibitor)",107.8±3.9%
same,"LTP induced by Compound 1, co-perfused with MCPG",[1]; with MCPG 100 μM,reduced
same,duration of enduring LTP in amygdala,[2],at least 1 hr
same,"enhancement effect induced by Compound 1, with KT5823",[3]; KT5823 i.c.v. 0.2 nmole,significantly antagonized
same,"enhancement effect induced by Compound 1, with L-NAME",[3]; L-NAME i.c.v. 1 mmole,significantly antagonized
same,retention scores when given before context training,[3]; administered 10 min before the context training instead of the foot-shock,prolonged the retention scores
same,"Retention Scores Day-1, mean ± std",[3]; [5],mean ± std 233.0 ± 47.3 sec
same,"Retention Scores Day-10, mean ± std",[3]; [5],181.4 ± 55.7 s
same,"Retention Scores Day-1, individual rats",[3]; [6],>300 sec (3×) and 207.1 sec and 58.1 sec
same,"Retention Scores Day-10, individual rats",[3]; [6],252.2 s and 255.9 s and 85.8 s and >300 s and 12.9 s
same,retention latencies in the lighted compartment,[3]; i.p. 1 mg/kg 10 min before foot-shock training,markedly prolonged
same,rats with retention latencies longer than 5 min,"[3]; i.p. 1 mg/kg, tested on both day-1 and day-10",11 out of 12
same,effect on avoidance behavior when injected after foot-shock,[3]; injected 30 min after foot-shock,did not exert any effect
same,"Retention Scores Day-1, mean ± std",[3]; [7],mean ± std 369.2 ± 70.2 sec
same,"Retention Scores Day-10, mean ± std",[3]; [7],437.3 ± 62.4 s
same,"Retention Scores Day-1, individual rats",[3]; [8],>600 sec (4×) and 15.0 sec and >300 sec (4×) and 77.1 sec
same,"Retention Scores Day-10, individual rats",[3]; [8],454.0 sec and >600 sec (4×) and 15.0 sec and 207.1 sec and 453.2 sec and 343.2 sec and 500.2 sec
same,"memory enhancement effect induced by Compound 1, with KT5823",[4]; KT5823 i.c.v. 0.2 nmole,effectively inhibited
same,"memory enhancement effect induced by Compound 1, with L-NAME",[4]; L-NAME i.c.v. 1 mmole,effectively inhibited
same,escape latency from the shock- to the safe-compartment,[4]; [9],decrease
same,retention of memory,[4]; [9],noticeable increase
